pEC50, pIC50: −log10 of the molar value.
Tests used:
[1] = Cytoprotective activity against H2O2-induced cytotoxicity in human EAhy926 cells at 50 uM pre-incubated for 24 hrs before H2O2 challenge for 12 hrs by MTT assay; format: functional, EA.hy 926
[2] = Anti-platelet activity in rabbit platelet-rich plasma assessed as inhibition of ADP-induced platelet aggregation at 100 uM incubated for 5 mins at 37 degC by aggregometry; format: functional; settings: Oryctolagus cuniculus
[3] = Cytoprotective activity against H2O2-induced cytotoxicity in human EAhy926 cells at 12.5 uM pre-incubated for 24 hrs before H2O2 challenge for 12 hrs by MTT assay; format: functional, EA.hy 926
[4] = Anti-platelet activity in rabbit platelet-rich plasma assessed as inhibition of ADP-induced platelet aggregation at 50 uM incubated for 5 mins at 37 degC by aggregometry; format: functional; settings: Oryctolagus cuniculus
[5] = Cytoprotective activity against H2O2-induced cytotoxicity in human EAhy926 cells at 25 uM pre-incubated for 24 hrs before H2O2 challenge for 12 hrs by MTT assay; format: functional, EA.hy 926
[6] = Anti-platelet activity in rabbit platelet-rich plasma assessed as inhibition of ADP-induced platelet aggregation at 12.5 uM incubated for 5 mins at 37 degC by aggregometry; format: functional; settings: Oryctolagus cuniculus
[7] = Cytoprotective activity against H2O2-induced cytotoxicity in human EAhy926 cells pre-incubated for 24 hrs before H2O2 challenge for 12 hrs by MTT assay; format: functional, cell-based; settings: EA.hy 926
[8] = Anti-platelet activity in rabbit platelet-rich plasma assessed as inhibition of ADP-induced platelet aggregation at 25 uM incubated for 5 mins at 37 degC by aggregometry; format: functional; settings: Oryctolagus cuniculus
[9] = Anti-platelet activity in rabbit platelet-rich plasma assessed as inhibition of ADP-induced platelet aggregation incubated for 5 mins at 37 degC by aggregometry; format: functional; settings: Oryctolagus cuniculus
[10] = Potency index, ratio of EC50 for lipoic acid to EC50 for test compound for cytoprotective activity against H2O2-induced cytotoxicity in human EAhy926 cells pre-incubated for 24 hrs before H2O2 challenge for 12 hrs by MTT assay; format: functional
[11] = Cytoprotective activity against H2O2-induced cytotoxicity in human EAhy926 cells at 100 uM pre-incubated for 24 hrs before H2O2 challenge for 12 hrs by MTT assay; format: functional, EA.hy 926

SMILES	Activity [1] [%]	inhibition at 100 µM [2] [%]	Activity [3] [%]	inhibition at 50 µM [4] [%]	Activity [5] [%]	inhibition at 12.5 µM [6] [%]	pEC50 [7]	inhibition at 25 µM [8] [%]	pIC50 [9]	Ratio EC50 [10]	Activity [11] [%]
CCOC(=O)/C=C/c1ccc(OC(=O)c2nc(C)c(C)nc2C)c(O)c1	210.8	58.4	75.7	37.9	207	22	5.77	36.4	4.11	40	375.3
Cc1nc(C)c(C(=O)Oc2ccc(Cl)cc2/C=C/C(=O)O)nc1C	23.7	74.5	6.9	37	26	30	4.02	38.1	4.24	–	52.2
